Experimental data from publication PMC6301270 (MedChemComm, 2018).

Tested on: T.b. brucei (strain 427) bloodstream form parasites
Assay: T.b. brucei single concentration screen (10 μM)
Details: Trypanosoma brucei, read-out: T.b.brucei % viability (10 µM)

Structure (SMILES) | viability at 10 µM [%]
Nc1c2c(nc3sc4c(c13)CCCC4)CCCC2 [MMV676588, Nc1c2CCCCc2nc3sc4CCCCc4c13] | 99
O=C(CCC1CCCCC1)Nc1cccc(-c2nnc(-c3ccco3)o2)c1 [MMV676589, O=C(CCC1CCCCC1)Nc2cccc(c2)c3oc(nn3)c4occc4] | 95
CCCn1nnc(NC(=O)COc2ccc(C3CCCCC3)cc2)n1 [MMV676597, CCCn1nnc(NC(=O)COc2ccc(cc2)C3CCCCC3)n1] | 71
CC(C)(C)n1nc(Cc2cccc3ccccc23)c2c(N)ncnc21 [MMV676599, CC(C)(C)n1nc(Cc2cccc3ccccc23)c4c(N)ncnc14] | 87
CC1COC2(CCN(c3nc(=O)c4cc(C(F)(F)F)cc([N+](=O)[O-])c4s3)CC2)O1 (stereo not shown) [MMV676603, CC1COC2(CCN(CC2)C3=NC(=O)c4cc(cc(c4S3)[N+](=O)[O-])C(F)(F)F)O1] | 82
C[C@]1(O)C[C@@H](c2nc(-c3ccc4ccc(-c5ccccc5)nc4c3)c3c(N)nccn32)C1 [MMV676605, C[C@@]1(O)C[C@@H](C1)c2nc(c3ccc4ccc(nc4c3)c5ccccc5)c6c(N)nccn26] | 67
O=C(c1ccc(NCCO)cc1)C1C[C@H]1c1ccc(Cl)cc1 (stereo partly shown) [MMV676877, OCCNc1ccc(cc1)C(=O)C2C[C@H]2c3ccc(Cl)cc3] | 102
CCn1cnc2c(Nc3cc(F)cc(F)c3)nc(C#N)nc21 [MMV676881, CCn1cnc2c(Nc3cc(F)cc(F)c3)nc(nc12)C#N] | 70
NC(=O)c1cc(-c2ccsc2)ccc1OCCOc1ccccc1 [MMV687138, NC(=O)c1cc(ccc1OCCOc2ccccc2)c3ccsc3] | 104
CCCCS(=O)(=O)Nc1ccc2cnn(C)c2c1 [MMV687145, CCCCS(=O)(=O)Nc1ccc2cnn(C)c2c1] | 95
Cc1cc(C)c2cc(C(=O)NC3CCCCCCC3)[nH]c2c1 [MMV687146, Cc1cc(C)c2cc([nH]c2c1)C(=O)NC3CCCCCCC3] | 92
COc1ccc(Cn2cnc3c(-c4ccco4)nc(Cl)nc32)cc1 [MMV687170, COc1ccc(Cn2cnc3c(nc(Cl)nc23)c4occc4)cc1] | 97
O=C(C1CCN(c2cc(-n3cccc3)ncn2)CC1)N1CCc2ccccc2C1 [MMV687172, O=C(C1CCN(CC1)c2cc(ncn2)n3cccc3)N4CCc5ccccc5C4] | 93
CCc1ccc([C@@H]2C[C@H](C(F)(F)F)n3ncc(C(=O)NCc4ccc(OC)cc4)c3N2)cc1 [MMV687180, CCc1ccc(cc1)[C@@H]2C[C@@H](n3ncc(C(=O)NCc4ccc(OC)cc4)c3N2)C(F)(F)F] | 57
COc1ccc2nc(C)cc(OCC(=O)Nc3ccccc3OC)c2c1 [MMV687188, COc1ccc2nc(C)cc(OCC(=O)Nc3ccccc3OC)c2c1] | 92
COc1ccc2nc(C)cc(OCC(=O)NCc3ccccc3)c2c1 [MMV687189, COc1ccc2nc(C)cc(OCC(=O)NCc3ccccc3)c2c1] | 92
CC(C)(C(=O)Nc1ccc(F)cc1)n1cc(-c2ccccc2F)cn1 [MMV687239, CC(C)(C(=O)Nc1ccc(F)cc1)n2cc(cn2)c3ccccc3F] | 89
NC(=O)c1cc(Br)ccc1OCCOc1ccccc1 [MMV687243, NC(=O)c1cc(Br)ccc1OCCOc2ccccc2] | 92
CN1CCN(S(=O)(=O)c2ccc(-c3ccc4c(Nc5ccc6nn[nH]c6c5)ccnc4c3)cc2)CC1 [MMV687246, CN1CCN(CC1)S(=O)(=O)c2ccc(cc2)c3ccc4c(Nc5ccc6nn[nH]c6c5)ccnc4c3] | 106
Cn1c(=O)c2c(S(C)(=O)=O)snc2n(C)c1=O [MMV687251, CN1C(=O)N(C)c2nsc(c2C1=O)S(=O)(=O)C] | 98
CCCCc1ccc(C(=O)Nc2nccc3ccccc23)nc1 [MMV687254, CCCCc1ccc(nc1)C(=O)Nc2nccc3ccccc23] | 81
CCc1nc2ccc(Cl)cn2c1C(=O)NCc1ccc(N2CCC(c3ccc(OC(F)(F)F)cc3)CC2)cc1 [MMV687696, CCc1nc2ccc(Cl)cn2c1C(=O)NCc3ccc(cc3)N4CCC(CC4)c5ccc(OC(F)(F)F)cc5] | 99
O=C(NCc1cc(Cl)cc(Cl)c1)c1c(C(F)(F)F)nc2ccccn12 [MMV687699, FC(F)(F)c1nc2ccccn2c1C(=O)NCc3cc(Cl)cc(Cl)c3] | 99
Nc1ncnc2c1ncn2[C@@H]1O[C@H](COS(=O)(=O)NC(=O)c2ccccc2O)[C@@H](O)[C@H]1O [MMV687700, Nc1ncnc2c1ncn2[C@@H]3O[C@H](COS(=O)(=O)NC(=O)c4ccccc4O)[C@@H](O)[C@H]3O] | 104
O=C1O[C@@H](CO)CN1c1cc(F)c(C2=CCN(Cc3ccccc3)CC2)c(F)c1 [MMV687729, OC[C@H]1CN(C(=O)O1)c2cc(F)c(C3=CCN(Cc4ccccc4)CC3)c(F)c2] | 101
CCCCOC(=O)Nc1cc2nc(C3CCCCC3)[nH]c2cc1N1CCCC1 [MMV687730, CCCCOC(=O)Nc1cc2nc([nH]c2cc1N3CCCC3)C4CCCCC4] | 61

Structure (SMILES) | viability at 10 µM [%]
Cc1cc(OCC(=O)NCc2ccccc2)c2cc(Br)ccc2n1 [MMV687747, Cc1cc(OCC(=O)NCc2ccccc2)c3cc(Br)ccc3n1] | 89
c1ccc(C[C@@H]2CN(c3nccc(Oc4ccc(-n5ccnc5)cc4)n3)CCN2)cc1 [MMV687749, C([C@@H]1CN(CCN1)c2nccc(Oc3ccc(cc3)n4ccnc4)n2)c5ccccc5] | 60
CC1(C)OB(O)c2ccc(C3=NOC(c4cc(Cl)c(F)c(Cl)c4)(C(F)(F)F)C3)cc21 (stereo not shown) [MMV687775, CC1(C)OB(O)c2ccc(cc12)C3=NOC(C3)(c4cc(Cl)c(F)c(Cl)c4)C(F)(F)F] | 33
CC1(C)Cc2c(c(N3CCOCC3)nc3snc(Br)c23)CO1 [MMV687794, CC1(C)Cc2c(CO1)c(nc3snc(Br)c23)N4CCOCC4] | 50
O=C1O[C@@H](COc2ccon2)CN1c1cc(F)c(C2=CCN(Cc3ccccc3)CC2)c(F)c1 [MMV687813, Fc1cc(cc(F)c1C2=CCN(Cc3ccccc3)CC2)N4C[C@H](COc5ccon5)OC4=O] | 113
Cc1cccc(-c2nc(Nc3ccncn3)c3sccc3n2)n1 [MMV688122, Cc1cccc(n1)c2nc(Nc3ccncn3)c4sccc4n2] | 85
CCc1ccc(S(=O)(=O)Nc2cc(CN3CCN(CCC(C)C)CC3)ccc2C)cc1 [MMV688124, CCc1ccc(cc1)S(=O)(=O)Nc2cc(CN3CCN(CCC(C)C)CC3)ccc2C] | 84
CCCc1ccc(S(=O)(=O)Nc2ccc(CN3CCN(CC4CC4)CC3)cc2)cc1 [MMV688125, CCCc1ccc(cc1)S(=O)(=O)Nc2ccc(CN3CCN(CC4CC4)CC3)cc2] | 72
c1ccc(Oc2ccc(-c3cncc(-c4ccc5[nH]ccc5c4)n3)cc2)cc1 [MMV688178, O(c1ccccc1)c1ccc(cc1)-c1cncc(n1)-c1ccc2[nH]ccc2c1] | 101
CC1(COc2ccc(N3CCC(Oc4ccc(OC(F)(F)F)cc4)CC3)cc2)Cn2cc([N+](=O)[O-])nc2O1 (stereo not shown) [MMV688262, CC1(COc2ccc(cc2)N3CCC(CC3)Oc4ccc(OC(F)(F)F)cc4)Cn5cc(nc5O1)N(=O)=O] | 74
COc1ccc(-c2cnc3cnc(-c4cccc(OC(C)C)c4)cn23)cc1 [MMV688270, COc1ccc(cc1)-c1cnc2cnc(cn12)-c1cccc(OC(C)C)c1] | 99
Nc1ccc2ncnc(Nc3ccc(OCc4cccc(F)c4)c(Cl)c3)c2c1 [MMV688273, Nc1ccc2ncnc(Nc3ccc(OCc4cccc(F)c4)c(Cl)c3)c2c1] | 56
O=C(CN1CCOCC1)Nc1ccc2ncnc(Nc3ccc(OCc4cccc(F)c4)c(Cl)c3)c2c1 [MMV688274, Fc1cccc(COc2ccc(Nc3ncnc4ccc(NC(=O)CN5CCOCC5)cc34)cc2Cl)c1] | 63
COc1ccc(-c2nnc3ccc(-c4cccc(C(C)C)c4)cn23)cc1OC [MMV688313, COc1ccc(cc1OC)-c1nnc2ccc(cn12)-c1cccc(c1)C(C)C] | 92
CC(=O)NCC1CN(c2ccc(-c3ccc(CNCc4cn[nH]n4)cc3)c(F)c2)C(=O)O1 (stereo not shown) [MMV688327, CC(=O)NCC1CN(C(=O)O1)c2ccc(c(F)c2)c3ccc(CNCc4cn[nH]n4)cc3] | 68
CC(=O)N1CCN(c2ccc(Oc3ccc(Cl)cc3O)cc2)CC1 [MMV688330, CC(=O)N1CCN(CC1)c1ccc(Oc2ccc(Cl)cc2O)cc1] | 103
Nc1nc(N)c2c3c(sc2n1)CN(Cc1ccccc1)CC3 [MMV688345, Nc1nc(N)c2c3CCN(Cc4ccccc4)Cc3sc2n1] | 110
COC(=O)c1ccc(F)cc1NS(=O)(=O)c1cccc(-c2cnn(Cc3ccccc3)c2)c1 [MMV688350, COC(=O)c1ccc(F)cc1NS(=O)(=O)c2cccc(c2)c3cnn(Cc4ccccc4)c3] | 85
O=C1[C@@H](Oc2ccccc2)[C@@H](c2ccc(Cl)cc2)N1CCn1cnc2c(NCc3ccccc3)ncnc21 [MMV688352, Clc1ccc(cc1)[C@@H]2[C@H](Oc3ccccc3)C(=O)N2CCn4cnc5c(NCc6ccccc6)ncnc45] | 107
c1cc(C2=NCCN2)cc(-c2cc(-c3ccc(C4=NCCN4)cc3)no2)c1 [MMV688361, C1CN=C(N1)c2ccc(cc2)c3cc(on3)c4cccc(c4)C5=NCCN5] | 18
COc1cc(C2=NCCN2)cc2cc(-c3ccc(C4=NCCN4)cc3)oc12 [MMV688362, COc1cc(cc2cc(oc12)c3ccc(cc3)C4=NCCN4)C5=NCCN5] | 35
CC(C)(C)OC(=O)N1CCC(Cn2nc(-c3cnc4ccccc4c3)c3c(N)ncnc32)CC1 [MMV688364, CC(C)(C)OC(=O)N1CCC(Cn2nc(-c3cnc4ccccc4c3)c3c(N)ncnc23)CC1] | 102
COc1cc(C2=NCCN2)ccc1-c1cn(-c2cccc(C3=NCCN3)c2)nn1 [MMV688407, COc1cc(ccc1c2cn(nn2)c3cccc(c3)C4=NCCN4)C5=NCCN5] | 87
CC1=Nc2ccc(Cl)cc2C(c2ccccc2)N1CCNC(=O)CN(C)C (stereo not shown) [MMV688410, CN(C)CC(=O)NCCN1C(c2ccccc2)c3cc(Cl)ccc3N=C1C] | 77
Nc1ncnc2c1c(-c1cnc3ccccc3c1)nn2CC1CCNCC1 [MMV688411, Nc1ncnc2n(CC3CCNCC3)nc(-c3cnc4ccccc4c3)c12] | 104
CO[C@@H]1CN(c2ccc(C#CC3(O)CN4CCC3CC4)c(Cc3ccccc3)n2)C[C@H]1O (stereo partly shown) [MMV688415, CO[C@@H]1CN(C[C@H]1O)c2ccc(C#CC3(O)CN4CCC3CC4)c(Cc5ccccc5)n2] | 99
